Consider 31 molecules from US20090264401A1, “SUBSTITUTED PYRIMIDIN-5-CARBOXAMIDES 281” (AstraZeneca AB, priority 2008, published 2009).

Broadly, the inhibition is the relative decrease from the control value, in per cent.

Molecules are shown by their SMILES.

T1 sequence (P28845 whole entry): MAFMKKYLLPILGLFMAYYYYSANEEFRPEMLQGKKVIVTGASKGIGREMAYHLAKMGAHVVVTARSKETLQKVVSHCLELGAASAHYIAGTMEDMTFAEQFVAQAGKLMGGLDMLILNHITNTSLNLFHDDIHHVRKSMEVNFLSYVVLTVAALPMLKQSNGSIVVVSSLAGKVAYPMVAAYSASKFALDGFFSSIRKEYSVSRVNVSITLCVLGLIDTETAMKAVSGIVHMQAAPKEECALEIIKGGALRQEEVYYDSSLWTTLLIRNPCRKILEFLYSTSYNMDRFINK

The experiment concerns the target T1, human 11βHSD1 enzyme (Homo sapiens, UniProt P28845).
T1 construct: baculovirus expressed N terminal 6-His tagged full length human 11βHSD1 enzyme; 6-His (N); made in house
As to the kind of experiment: 11βHSD1 cortisone to cortisol conversion, competitive HTRF assay. The conditions noted are these: human 11-βHSD; test concentration of 30 μM of compound. In kind it is biochemical. As to the method: The evaluation of compounds described herein was carried out using a baculovirus expressed N terminal 6-His tagged full length human 11βHSD1 enzyme(*1). The enzyme was purified from a detergent solubilised cell lysate, using a copper chelate column. Inhibitors of 11βHSD1 reduce the conversion of cortisone to cortisol, which is identified by an increase in signal, in the above assay.
Compounds to be tested were dissolved in dimethyl sulphoxide (DMSO) to 10 mM and diluted further in assay buffer containing 1% DMSO to 10 fold the final assay concentration. Diluted compounds were then plated into black 384 well plates (Matrix, Hudson N.H., USA).
Fluorescence at 665 nm and 620 nm was measured and the 665 nm:620 nm ratio calculated using an Envision plate reader.
Regarding `O=C(N[C@H]1C2CC3CC1C[C@@](O)(C3)C2)c1cnc(N2CC3CC2CS3(=O)=O)nc1C1CC1` [Example 48, 4-Cyclopropyl-2-(3,3-dioxo-3λ6-thia-6-azabicyclo[2.2.1]heptan-6-yl)-N-[(2r,5 s)-5-hydroxyadamantan-2-yl]pyrimidine-5-carboxamide], the inhibition at 30 µM is 100%.
In the case of `Nc1ncc(C(=O)N[C@H]2C3CC4CC2C[C@@](O)(C4)C3)c(C2CC2)n1` [Example 49, 2-Amino-4-cyclopropyl-N-[(2r,5s)-5-hydroxyadamantan-2-yl]pyrimidine-5-carboxamide], the inhibition at 30 µM is 99.3%.
The result for `O=C(N[C@H]1C2CC3CC1C[C@@](O)(C3)C2)c1cnc(N2CC(F)(F)C2)nc1C1CC1` [Example 52, 4-cyclopropyl-2-(3,3-difluoroazetidin-1-yl)-N-[(2r,5s)-5-hydroxyadamantan-2-yl]pyrimidine-5-carboxamide] reads 92.5%; that for `O=C(N[C@H]1C2CC3CC1C[C@@](O)(C3)C2)c1cnc(N2CCC2)nc1C1CC1` [Example 53, 2-(azetidin-1-yl)-4-cyclopropyl-N-[(2r,5s)-5-hydroxyadamantan-2-yl]pyrimidine-5-carboxamide], 102%; that for `O=C(N[C@H]1C2CC3CC1C[C@@](O)(C3)C2)c1cnc(NC2CCC2)nc1C1CC1` [Example 54, (cyclobutylamino)-4-cyclopropyl-N-[(2r,5s)-5-hydroxyadamantan-2-yl]pyrimidine-5-carboxamide], 102%.
The result for `COCCN1CCN(c2ncc(C(=O)N[C@H]3C4CC5CC3C[C@@](O)(C5)C4)c(C3CC3)n2)CC1` [Example 55, 4-cyclopropyl-N-[(2r,5s)-5-hydroxyadamantan-2-yl]-2-[4-(2-methoxyethyl)piperazin-1-yl]pyrimidine-5-carboxamide] reads 96.9%; that for `O=C(N[C@H]1C2CC3CC1C[C@@](O)(C3)C2)c1cnc(NC2CC2)nc1C1CC1` [Example 56, 4-cyclopropyl-2-(cyclopropylamino)-N-[(2r,5s)-5-hydroxyadamantan-2-yl]pyrimidine-5-carboxamide], 90.2%.
The same measure for `O=C(N[C@H]1C2CC3CC1C[C@@](O)(C3)C2)c1cnc(NC2CCCC2)nc1C1CC1` [Example 57, 2-(cyclopentylamino)-4-cyclopropyl-N-[(2r,5s)-5-hydroxyadamantan-2-yl]pyrimidine-5-carboxamide]: 102%.
As to `O=C(N[C@H]1C2CC3CC1C[C@@](O)(C3)C2)c1cnc(N2C[C@@H]3C[C@H]2CO3)nc1C1CC1` [Example 58, 4-cyclopropyl-N-[(2r,5s)-5-hydroxyadamantan-2-yl]-2-[(1S,4S)-2-oxa-5-azabicyclo[2.2.1]hept-5-yl]pyrimidine-5-carboxamide], the inhibition at 30 µM is 99.6%.
The same measure for `O=C(N[C@H]1C2CC3CC1C[C@@](O)(C3)C2)c1cnc(N2CCOC(CO)C2)nc1C1CC1` (stereo partly shown) [Example 59, 4-cyclopropyl-N-[(2r,5s)-5-hydroxyadamantan-2-yl]-2-[2-(hydroxymethyl)morpholin-4-yl]pyrimidine-5-carboxamide]: 95.6%; for `O=C(N[C@H]1C2CC3CC1C[C@@](O)(C3)C2)c1cnc(N2CCOCC2CO)nc1C1CC1` (stereo partly shown) [Example 60, 4-cyclopropyl-N-[(2r,5s)-5-hydroxyadamantan-2-yl]-2-[3-(hydroxymethyl)morpholin-4-yl]pyrimidine-5-carboxamide]: 95.1%; for `CN(C)c1ncc(C(=O)N[C@H]2C3CC4CC2C[C@@](O)(C4)C3)c(C2CC2)n1` [Example 61, 4-cyclopropyl-2-(dimethylamino)-N-[(2r,5s)-5-hydroxyadamantan-2-yl]pyrimidine-5-carboxamide]: 105%.
Turning to `C[C@@H]1CN(c2ncc(C(=O)N[C@H]3C4CC5CC3C[C@@](O)(C5)C4)c(C3CC3)n2)C[C@H](C)N1` [Example 62, 4-cyclopropyl-2-[(3R,5S)-3,5-dimethylpiperazin-1-yl]-N-[(2r,5s)-5-hydroxyadamantan-2-yl]pyrimidine-5-carboxamide], the inhibition at 30 µM amounted to 99.9%.
The same measure for `C[C@@H]1CN(c2ncc(C(=O)N[C@H]3C4CC5CC3C[C@@](O)(C5)C4)c(C3CC3)n2)C[C@@H](C)O1` [Example 63, 4-cyclopropyl-2-[(2R,6R)-2,6-dimethylmorpholin-4-yl]-N-[(2r,5s)-5-hydroxyadamantan-2-yl]pyrimidine-5-carboxamide]: 92.7%.
The result for `CC(C)Nc1ncc(C(=O)N[C@H]2C3CC4CC2C[C@@](O)(C4)C3)c(C2CC2)n1` [Example 64, 4-cyclopropyl-N-[(2r,5s)-5-hydroxyadamantan-2-yl]-2-(isopropylamino)pyrimidine-5-carboxamide] reads 95.9%; that for `O=C(N[C@H]1C2CC3CC1C[C@@](O)(C3)C2)c1cnc(NC2CCS(=O)(=O)CC2)nc1C1CC1` [Example 68, 4-cyclopropyl-2-[(1,1-dioxidotetrahydro-2H-thiopyran-4-yl)amino]-N-[(2r,5s)-5-hydroxyadamantan-2-yl]pyrimidine-5-carboxamide], 98.3%.
The same measure for `O=C(N[C@H]1C2CC3CC1C[C@@](O)(C3)C2)c1cnc(NCCO)nc1C1CC1` [Example 69, 4-cyclopropyl-N-[(2r,5s)-5-hydroxyadamantan-2-yl]-2-[(2-hydroxyethyl)amino]pyrimidine-5-carboxamide]: 102%; for `CS(=O)(=O)N1CCN(c2ncc(C(=O)N[C@H]3C4CC5CC3C[C@@](O)(C5)C4)c(C3CC3)n2)CC1` [Example 70, 4-cyclopropyl-N-[(2r,5s)-5-hydroxyadamantan-2-yl]-2-(4-methylsulfonylpiperazin-1-yl)pyrimidine-5-carboxamide]: 98%; for `O=C(N[C@H]1C2CC3CC1C[C@@](O)(C3)C2)c1cnc(NCCN2CCOCC2)nc1C1CC1` [Example 72, 4-cyclopropyl-N-[(2r,5s)-5-hydroxyadamantan-2-yl]-2-[(2-morpholin-4-ylethyl)amino]pyrimidine-5-carboxamide]: 91.6%.
Take `C[C@@H]1CN(CCNc2ncc(C(=O)N[C@H]3C4CC5CC3C[C@@](O)(C5)C4)c(C3CC3)n2)C[C@H](C)O1` [Example 73, 4-cyclopropyl-2-({2-[(2R,6S)-2,6-dimethylmorpholin-4-yl]ethyl}amino)-N-[(2r,5s)-5-hydroxyadamantan-2-yl]pyrimidine-5-carboxamide]: the inhibition at 30 µM is 95.2%.
For the molecule `CN1CCN(CCNc2ncc(C(=O)N[C@H]3C4CC5CC3C[C@@](O)(C5)C4)c(C3CC3)n2)CC1` [Example 74, 4-cyclopropyl-N-[(2r,5s)-5-hydroxyadamantan-2-yl]-2-{[2-(4-methylpiperazin-1-yl)ethyl]amino}pyrimidine-5-carboxamide], the inhibition at 30 µM amounted to 88.5%.
As to `O=C(N[C@H]1C2CC3CC1C[C@@](O)(C3)C2)c1cnc(OC2CCC2)nc1C1CC1` [Example 75, 2-(Cyclobutyloxy)-4-cyclopropyl-N-[(2r,5 s)-5-hydroxyadamantan-2-yl]pyrimidine-5-carboxamide], the inhibition at 30 µM turned out to be 98.6%.
The result for `CC(C)Oc1ncc(C(=O)N[C@H]2C3CC4CC2C[C@@](O)(C4)C3)c(C2CC2)n1` [Example 76, 4-cyclopropyl-N-[(2r,5s)-5-hydroxyadamantan-2-yl]-2-isopropoxypyrimidine-5-carboxamide] reads 96.1%.
The same measure for `O=C(N[C@H]1C2CC3CC1C[C@@](O)(C3)C2)c1cnc(OC2CCCC2)nc1C1CC1` [Example 77, 2-(cyclopentyloxy)-4-cyclopropyl-N-[(2r,5s)-5-hydroxyadamantan-2-yl]pyrimidine-5-carboxamide]: 90.9%; for `O=C(N[C@H]1C2CC3CC1C[C@@](O)(C3)C2)c1cnc(OC2COC2)nc1C1CC1` [Example 78, 4-cyclopropyl-N-[(2r,5s)-5-hydroxyadamantan-2-yl]-2-(oxetan-3-yloxy)pyrimidine-5-carboxamide]: 93.1%.
The result for `O=C(c1cnc(N2CCOCC2)nc1C1CC1)N1CCC(c2cccnc2)C1` (stereo not shown) [Example 79, (4-Cyclopropyl-2-morpholinopyrimidin-5-yl)(3-(pyridin-3-yl)pyrrolidin-1-yl)methanone] reads 89.7%; that for `CC(=O)N1CCN(c2ncc(C(=O)N3CCC(c4cccnc4)C3)c(C3CC3)n2)CC1` (stereo not shown) [Example 80, 1-(4-(4-cyclopropyl-5-(3-(pyridin-3-yl)pyrrolidine-1-carbonyl)pyrimidin-2-yl)piperazin-1-yl)ethanone], 99.2%; that for `C[C@@H]1CN(c2ncc(C(=O)N3CCC(c4cccnc4)C3)c(C3CC3)n2)C[C@H](C)O1` (stereo partly drawn) [Example 81, (4-cyclopropyl-2-((2S,6R)-2,6-dimethylmorpholino)pyrimidin-5-yl)(3-(pyridin-3-yl)pyrrolidin-1-yl)methanone], 100%.
In the case of `O=C(N[C@H]1C2CC3CC1C[C@@](O)(C3)C2)c1cnc(N2CC[S+]([O-])CC2)nc1C1CCC1` [Example 82, 4-Cyclobutyl-N-[(2r,5 s)-5-hydroxyadamantan-2-yl]-2-(1-oxo-1,4-thiazinan-4-yl)pyrimidine-5-carboxamide], the inhibition at 30 µM is 95.2%.
The result for `O=C(N[C@H]1C2CC3CC1C[C@@](O)(C3)C2)c1cnc(N2CCS(=O)(=O)CC2)nc1C1CCC1` [Example 83, 4-Cyclobutyl-2-(1,1-dioxo-1,4-thiazinan-4-yl)-N-[(2r,5s)-5-hydroxyadamantan-2-yl]pyrimidine-5-carboxamide] reads 103%; that for `Nc1ncc(C(=O)N[C@H]2C3CC4CC2C[C@@](O)(C4)C3)c(C2CCC2)n1` [Example 84, 2-Amino-4-cyclobutyl-N-[(2r,5s)-5-hydroxyadamantan-2-yl]pyrimidine-5-carboxamide], 97.5%.
